Calls of active or inactive are those of the source. The calls are words filed in the database; no cut-off is given here.
Legend:
HCT-116 [1] = assay: Induction of reactive oxygen species generation in human HCT116 cells at antiproliferative GI50 after 60 mins by DCFH-DA probe based assay; type: functional, cell-based
HCT-116 [2] = assay: Induction of mitochondrial membrane potential loss in human HCT116 cells at antiproliferative GI50 after 48 hrs by JC-1 staining based fluorescence assay; type: functional, cell-based
HCT-116 [3] = assay: Induction of glutathione oxidation in human HCT116 cells assessed as increase in GSSG/GSH ratio at 500 uM in presence of NADPH after 48 hrs by Ellman's method; type: functional, cell-based
HCT-116 [4] = assay: Induction of mitochondrial superoxide generation in human HCT116 cells at antiproliferative GI50 after 60 mins by mitoSOX red-probe based fluorescence assay; type: functional, cell-based
Liver [5] = assay: Induction of mitochondrial swelling in Wistar rat liver […] at 0.1 uM after 20 mins in presence of pyruvate and malate by spectroscopic analysis; type: functional
HCT-116 [6] = assay: Antiproliferative activity against human HCT116 cells after 48 hrs by sulforhodamine B assay; type: functional; conditions: HCT-116, 48 h
[7] = Cytotoxicity against human CRL1790 cells assessed as reduction in cell viability after 48 hrs by sulforhodamine B assay; type: cell-based; conditions: CRL1790 (CCD-841CoN) cells
[8] = Selectivity index, ratio of GI50 for human CRL1790 cells to GI50 for human HCT116 cells; type: functional
Liver [9] = assay: Stimulation of mitochondrial respiration in Wistar rat liver […] assessed as oxygen consumption rate at 20 and 25 uM using pyruvate and malate as respiratory substrate after 4 mins; type: functional
Liver [10] = assay: Stimulation of mitochondrial respiration in Wistar rat liver […] assessed as oxygen consumption rate at 0.1 and 10 uM using pyruvate and malate as respiratory substrate after 4 mins; type: functional

| Compound | Activity (HCT-116 [1]) | Activity (HCT-116 [2]) | Activity (HCT-116 [3]) | Activity (HCT-116 [4]) | Activity (Liver [5]) | GI50 (HCT-116 [6]) [µM] | GI50 at 48 h [7] [µM] | RatioGI50 [8] | Activity (Liver [9]) | Activity (Liver [10]) |
| --- | --- | --- | --- | --- | --- | --- | --- | --- | --- | --- |
| COc1cc(/C=C/C(=O)CC(=O)/C=C/c2ccc(O)c(OC)c2)ccc1O [CURCUMIN] | Active | Active | Active | Active | Active | 3.5 | 58.6 | 16.7 | – | – |
| O=[N+]([O-])c1ccc(O)c([N+](=O)[O-])c1 | – | – | – | – | – | – | – | – | Active | – |
| O=c1[nH]cc(F)c(=O)[nH]1 [FLUOROURACIL] | – | – | – | – | inactive | 5.47 | 10.3 | 1.88 | – | inactive |
